In the assay the target is T1, mUSP18 (Mus musculus, UniProt Q9WTV6).
T1 construct: (46-368); His-tag (N); made in house
T1 sequence (Q9WTV6 46-368): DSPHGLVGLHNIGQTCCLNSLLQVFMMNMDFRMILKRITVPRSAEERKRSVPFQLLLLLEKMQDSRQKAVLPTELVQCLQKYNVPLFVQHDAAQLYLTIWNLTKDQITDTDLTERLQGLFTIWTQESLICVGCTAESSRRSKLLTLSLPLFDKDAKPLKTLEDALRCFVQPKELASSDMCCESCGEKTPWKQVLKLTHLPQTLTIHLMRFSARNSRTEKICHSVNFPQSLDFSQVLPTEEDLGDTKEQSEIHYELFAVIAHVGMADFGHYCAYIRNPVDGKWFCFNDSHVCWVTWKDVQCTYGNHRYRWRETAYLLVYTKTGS
Description: High-throughput screening, ISG15ct-RhoMP, single dose 1.25 µM. The class given is biochemical, murine. Particulars: for inhibition at 1.25 µM: mUSP18 %inhibition; for inhibition of mUSP18 by individual CA's and coupling reagents: screened with and without DIC/HOBt.

The mark [1] stands for this setting: carboxylic acid (CA) building block alone, read-out: %inh CA only.
The mark [2] stands for this setting: carboxylic acid (CA) with coupling reagents DIC/HOBT, read-out: %inh CA + DIC/HOBT.

The source of these data is paper PMC12668310, “High‐Throughput Synthesis and Screening of a Cyanimide Library Identifies Selective Inhibitors of ISG15‐Specific Protease mUSP18” (Angewandte Chemie (International Ed. in English), 2025).

Like-named read-outs stand apart in the source and are kept apart here.

As to `O=C(O)c1csc(-c2cnc[nH]2)n1` [CA238], the inhibition at 1.25 µM by setting is: under setting [1], 6.66%; under setting [2], -0.05%.
The matching figures for `Cc1cc(C(=O)O)c(C)n1C1CC1` [CA239]: 7.06% and 5.98%.
As to `O=C(O)c1cnn(-c2cccc(Br)c2)c1` [CA240], the inhibition at 1.25 µM reads like this: under setting [1], 7.83%; under setting [2], 6.83%.
On to `CN(CC(=O)N1CCCC(C(=O)O)C1)c1ccc(Cl)cn1` (stereo not drawn) [CA241], for which the inhibition at 1.25 µM is, setting by setting: under setting [1], 5.13%; under setting [2], 1.85%.
Consider `O=C(O)C1CCN(C(=O)c2ccccn2)CC1` [CA242], for which the inhibition at 1.25 µM under setting [1] was 6.36% and the inhibition at 1.25 µM under setting [2] came to 2.43%.
The corresponding values for `O=C(O)c1ccc(Cn2cncn2)cc1` [CA243] are 6.44% and 2.23%.
Turning to `O=C(O)c1cc(Cl)nc(N2CCCC2)c1` [CA244], the inhibition at 1.25 µM came out at 9.03% under setting [1] and 3.68% under setting [2].
`Cc1nc(-c2c[nH]c(C(=O)O)c2)cs1` [CA245]: the “inhibition of mUSP18 by individual CA's and coupling reagents” value is listed as “could inhibit mUSP18”. In addition, the inhibition at 1.25 µM under setting [1] was found to be 19.9%. Under setting [2], the inhibition at 1.25 µM is 52.7%.
Take `O=C(O)Cc1ccn(-c2ccccc2)n1` [CA246]: the inhibition at 1.25 µM turned out to be 4.69% under setting [1] and 5.35% under setting [2].
For the molecule `O=C(O)C1CC(=O)N(C2CCCCCC2)C1` (stereo not drawn) [CA247], the inhibition at 1.25 µM stood at 2.25% under setting [1] and 4.63% under setting [2].
In the case of `O=C(O)c1cc(C2CCCCC2)[nH]n1` [CA248], the inhibition at 1.25 µM came out at 1.65% under setting [1] and 7.2% under setting [2].
As to `Cc1ccc(-c2cc(C(=O)O)n[nH]2)s1` [CA249], the inhibition at 1.25 µM was determined as 4.85% under setting [1] and 6.81% under setting [2].
As to `O=C(O)c1ccc(-c2ccccc2)o1` [CA250], the inhibition at 1.25 µM was 3.02% under setting [1] and 5.27% under setting [2].
The matching figures for `O=C(O)c1cccnc1N1CCCCC1` [CA251]: -0.46% and 6%.
Regarding `O=C(O)C1=NNC(=O)C1c1ccccc1` (stereo not drawn) [CA252], the inhibition at 1.25 µM reads like this: under setting [1], 3.55%; under setting [2], 10.3%.
The matching figures for `Cc1nn(-c2ccc(C(F)(F)F)cn2)c(C)c1CC(=O)O` [CA253]: 3.16% and 9.05%.
`Cc1ccc(N2CCCC(C(=O)O)C2)nc1` (stereo not drawn) [CA254]: the inhibition at 1.25 µM by setting is: under setting [1], -2.11%; under setting [2], 7.64%.
Turning to `O=C(O)c1ccc(-c2cnco2)cc1` [CA255], the inhibition at 1.25 µM by setting is: under setting [1], 0.58%; under setting [2], 7.03%.
The corresponding values for `Cn1nc(C(=O)O)cc1-c1cccnc1` [CA256] are -0.67% and 11.7%.
On to `Cc1cc(COc2ccc(C(=O)O)cc2Br)no1` [CA257], for which the inhibition at 1.25 µM runs as follows: under setting [1], 1.45%; under setting [2], 15.8%.
The corresponding values for `O=C(O)C1CN(S(=O)(=O)C2CC2)C1` [CA258] are 20.5% and 2.25%.
For `COc1ccc(C(=O)O)cc1S(=O)(=O)NCCc1ccccn1` [CA259], the inhibition at 1.25 µM came to 13.5% under setting [1] and 2.38% under setting [2].
On to `Cc1onc(-c2ccccn2)c1C(=O)O` [CA260], for which the inhibition at 1.25 µM under setting [1] came to 12.1% and the inhibition at 1.25 µM under setting [2] came out at 1.48%.
In the case of `O=C(O)C(=O)N1CCN(c2ccccc2)CC1` [CA261], the inhibition at 1.25 µM under setting [1] came out at 10.4% and the inhibition at 1.25 µM under setting [2] was found to be 2.36%.
Consider `O=C(O)C(F)(F)n1cc(-c2ccccc2)nn1` [CA262], for which the inhibition at 1.25 µM under setting [1] is 8.22% and the inhibition at 1.25 µM under setting [2] is 3.17%.
The matching figures for `O=C(O)C1Cc2ccccc21` (stereo not drawn) [CA263]: 9.79% and 2.89%.
As for `O=C(O)c1ccnc(N2CCOCC2)n1` [CA264], the inhibition at 1.25 µM is, setting by setting: under setting [1], 8.23%; under setting [2], 4.28%.
The matching figures for `O=C(O)C1COCCN1C(=O)OCc1ccccc1` (stereo not drawn) [CA265]: 7.65% and 3.99%.
With `O=C(O)c1cncc(N2CCCC2)n1` [CA266], the inhibition at 1.25 µM was found to be 8.54% under setting [1] and 4.99% under setting [2].
For `CN(Cc1ccccc1)S(=O)(=O)c1ccc(C(=O)O)cc1` [CA267], the inhibition at 1.25 µM came out at 9.75% under setting [1] and 5.3% under setting [2].
As to `Cn1nc(-c2cccnc2)cc1C(=O)O` [CA268], the inhibition at 1.25 µM reads like this: under setting [1], 8.72%; under setting [2], 3.94%.
As to `O=C(O)c1cnoc1-c1ccccc1C(F)(F)F` [CA269], the inhibition at 1.25 µM came to 6.72% under setting [1] and 5.54% under setting [2].
For `O=C(O)c1cn(CC2CCCO2)nn1` (stereo not drawn) [CA270], the inhibition at 1.25 µM is, setting by setting: under setting [1], 7.51%; under setting [2], 8.31%.
For `Cn1cc(-c2cc[nH]n2)c(C(=O)O)n1` [CA271], the inhibition at 1.25 µM reads like this: under setting [1], 1%; under setting [2], 7%.
Regarding `Cc1ccc([1C@@H]2C[1C@H]2C(=O)O)s1` [CA272], the inhibition at 1.25 µM is 5.08% under setting [1] and 8.26% under setting [2].
Take `CN1CCN(C(=O)[1C@@H]2[1C@@H](C(=O)O)C2(C)C)CC1` [CA273]: the inhibition at 1.25 µM is 5.18% under setting [1] and 5.09% under setting [2].
Regarding `Cc1csc(N2CCC(C(=O)O)CC2)n1` [CA274], the inhibition at 1.25 µM by setting is: under setting [1], 5.76%; under setting [2], 5.39%.
With `O=C(O)c1cc(Cn2cc(Cl)cn2)cs1` [CA275], the inhibition at 1.25 µM under setting [1] was found to be 8.26% and the inhibition at 1.25 µM under setting [2] was found to be 6.3%.
For the molecule `Cc1nc(COc2ccc(C(=O)O)cc2)no1` [CA276], the inhibition at 1.25 µM under setting [1] turned out to be 4.94% and the inhibition at 1.25 µM under setting [2] amounted to 6.3%.
For the molecule `CN(Cc1ccnn1C)C(=O)C1CCCCC1C(=O)O` (stereo not drawn) [CA277], the inhibition at 1.25 µM was found to be 5.25% under setting [1] and 7.6% under setting [2].
The matching figures for `COc1ccc(C(=O)O)cc1S(=O)(=O)NCc1ccccn1` [CA278]: 3.79% and 6.92%.
`O=C(O)c1ccc(CN2CCCCCC2)s1` [CA279]: the inhibition at 1.25 µM under setting [1] came out at 4.45% and the inhibition at 1.25 µM under setting [2] was 8.32%.
On to `Cc1nc(-c2cc(C)n(CCC(=O)O)c2C)cs1` [CA280], for which the inhibition at 1.25 µM turned out to be 11.4% under setting [1] and 14.1% under setting [2].
In the case of `O=C(O)c1ccc(Cl)c(N2CCCS2(=O)=O)c1` [CA281], the inhibition at 1.25 µM under setting [1] was found to be 4.15% and the inhibition at 1.25 µM under setting [2] was determined as 14.1%.
As to `Cc1noc(C)c1S(=O)(=O)N1CCC(C(=O)O)CC1` [CA282], the inhibition at 1.25 µM was 10.4% under setting [1] and -1.35% under setting [2].
For `NS(=O)(=O)c1ccc(CCNS(=O)(=O)c2cccc(C(=O)O)c2)cc1` [CA283], the inhibition at 1.25 µM under setting [1] is 7.79% and the inhibition at 1.25 µM under setting [2] was -9.16%.
Take `O=C(O)c1ccc(-c2cccs2)[nH]c1=O` [CA284]: the inhibition at 1.25 µM is 9.12% under setting [1] and -3.37% under setting [2].
In the case of `O=C(O)c1cc(N2CCOCC2)ccn1` [CA285], the inhibition at 1.25 µM reads like this: under setting [1], 2.02%; under setting [2], -5.92%.
As to `O=C(O)Cc1csc(-c2nnc[nH]2)n1` [CA286], the inhibition at 1.25 µM reads like this: under setting [1], 1.07%; under setting [2], -3.16%.
The corresponding values for `O=C(O)c1ccc(-n2cccn2)cc1` [CA287] are 1.15% and -3.85%.
Regarding `Cc1ccccc1COc1cccc(CC(=O)O)c1` [CA288], the inhibition at 1.25 µM was 3.53% under setting [1] and -1.94% under setting [2].
For the molecule `O=C(O)c1ccc(S(=O)(=O)Nc2cccc(Cl)c2F)o1` [CA289], the inhibition at 1.25 µM is 1.57% under setting [1] and -1.23% under setting [2].
As to `O=C(O)C1CCCN1C(=O)c1ccncc1` (stereo not drawn) [CA290], the inhibition at 1.25 µM by setting is: under setting [1], -0.53%; under setting [2], -3.12%.
The corresponding values for `Cc1ccc(S(=O)(=O)N[C@@H](Cc2ccccc2)C(=O)O)cc1` [CA291] are 3.32% and -0.72%.
As to `O=C(O)c1csc(-c2ccc(Br)s2)n1` [CA292], the inhibition at 1.25 µM runs as follows: under setting [1], 6.43%; under setting [2], 1.42%.
Take `O=C(O)c1cc(C2CC2)n[nH]1` [CA293]: the inhibition at 1.25 µM by setting is: under setting [1], 0.33%; under setting [2], 14.3%.
As to `O=C(O)c1cc(-c2ccncc2)on1` [CA294], the inhibition at 1.25 µM under setting [1] is -3.88% and the inhibition at 1.25 µM under setting [2] is -0.96%.
The corresponding values for `O=C(O)c1ccc(N2CCCC2)c(F)c1` [CA295] are -4.32% and 40.8%.
`O=C(O)Cc1ccc(OCCOc2ccccc2)cc1` [CA296]: the inhibition at 1.25 µM was -2.15% under setting [1] and 1.46% under setting [2].
The corresponding values for `Cc1cc(C(=O)O)c(C)n1-c1cccnc1` [CA297] are -2.57% and -1.91%.
`O=C(O)c1csc(-c2ccncc2)n1` [CA298]: the inhibition at 1.25 µM by setting is: under setting [1], -1.96%; under setting [2], -1.91%.
Regarding `O=C(O)C1CN(C(=O)OCc2ccccc2)CCO1` (stereo not drawn) [CA300], the inhibition at 1.25 µM under setting [1] is -2.04% and the inhibition at 1.25 µM under setting [2] was determined as 0.0181%.
On to `O=C(O)Cc1cnn(-c2ccccc2)n1` [CA301], for which the inhibition at 1.25 µM runs as follows: under setting [1], -3.64%; under setting [2], 0.63%.
For `O=C(O)c1cccn1-c1c(Cl)cccc1Cl` [CA302], the “inhibition of mUSP18 by individual CA's and coupling reagents” value is on record as “could inhibit mUSP18”. In addition, the inhibition at 1.25 µM under setting [1] amounted to 0.53%. The inhibition at 1.25 µM under setting [2] was 98.1%.
On to `O=C(O)c1cnn(-c2ccc(Br)cc2)c1` [CA303], for which the inhibition at 1.25 µM by setting is: under setting [1], -3.17%; under setting [2], 14.7%.
